Format in all cases: functional, organism-based
The test system of assay [1] is Streptococcus mutans. Put plainly: Antibacterial activity against Streptococcus mutans JCM 5705 assessed as reduction of biofilm at 1 M followed by 300 mW of laser irradiation measured within 3 mins by scanning electron microscopy.
Assay [2] relates to Streptococcus mutans. The assay can be described thus: Antibacterial activity against Streptococcus mutans JCM 5705 assessed as concentration required to 5 log reduction of biofilm measured after 300 mW of laser irradiation by scanning electron microscopy.
Assay [3] deals with Staphylococcus aureus. The assay can be described thus: Antibacterial activity against Staphylococcus aureus ATCC 25923 assessed as reduction of viable organism at 1 M followed by 300 mW of laser irradiation measured within 3 mins.
For assay [4], the system named is Aggregatibacter actinomycetemcomitans. Put plainly: Antibacterial activity against Aggregatibacter actinomycetemcomitans JCM 2434 assessed as reduction of viable organism at 1 M followed by 300 mW of laser irradiation measured within 3 mins.
The subject of assay [5] is Streptococcus mutans. Put plainly: Antibacterial activity against Streptococcus mutans JCM 5705 assessed as reduction of viable organism at 1 M followed by 300 mW of laser irradiation measured within 3 mins.
The subject of assay [6] is Staphylococcus aureus. Put plainly: Antibacterial activity against Staphylococcus aureus ATCC 25923 assessed as concentration required to 4 log reduction of viable organism measured after 300 mW of laser irradiation.
Assay [7] has as its system Enterococcus faecalis. Put plainly: Antibacterial activity against Enterococcus faecalis ATCC 29212 assessed as reduction of viable organism at 1 M followed by 300 mW of laser irradiation measured within 3 mins.
The test system of assay [8] is Enterococcus faecalis. Put plainly: Antibacterial activity against Enterococcus faecalis ATCC 29212 assessed as concentration required to 4 log reduction of viable organism measured after 300 mW of laser irradiation.
In assay [9] the test system is Enterococcus faecalis. The assay can be described thus: Antibacterial activity against Enterococcus faecalis ATCC 29212 assessed as reduction of viable organism measured after 300 mW of laser irradiation.
The test system of assay [10] is Streptococcus mutans. The assay can be described thus: Antibacterial activity against Streptococcus mutans JCM 5705 assessed as reduction of biofilm measured within 3 mins by scanning electron microscopy.
Assay [11] deals with Streptococcus mutans. Put plainly: Antibacterial activity against Streptococcus mutans JCM 5705 assessed as concentration required to 4 log reduction of viable organism measured after 300 mW of laser irradiation.
For assay [12], the system named is Aggregatibacter actinomycetemcomitans. The assay can be described thus: Antibacterial activity against Aggregatibacter actinomycetemcomitans JCM 2434 assessed as concentration required to 4 log reduction of viable organism measured after 300 mW of laser irradiation.

Structures are written as SMILES.

With `[OH]`, the log10CFU/ml was above 5 in [1]; above 4 in assay [3]; above 4 in assay [4]; 4 in assay [5]; above 4 in assay [7]; 1 in [10]. Besides, the Activity in assay [2] was 258 µM; in assay [6] it was 173 µM; in assay [8], 258 µM; in assay [9] it was “Dose-dependent effect”; in assay [11] it was 173 µM; in [12], 89 µM.

The values are drawn from ChEMBL document CHEMBL1687820, “Photolysis of hydrogen peroxide, an effective disinfection system via hydroxyl radical formation” (Antimicrob Agents Chemother, 2010).
